From US9226929B2, “Pharmaceutically active disubstituted triazine derivatives” (Bayer Intellectual Property GMBH, priority 2011, dated 2016) come the findings set out here.

SMILES strings stand for the structures.

The target in assay [1] is T1, CDK7/CyclinH/MAT1 (Homo sapiens, UniProt P50613).
T1 construct: His; purchased Carna Biosciences
Kind of assay: LanthaScreen Eu Kinase Binding Assay, CDK7. The note with it: tracer 236, read-out: CDK7 (activity range), Kd. An outline of the steps: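 TR-FRET displacement of an Alexa Fluor 647 active-site tracer, detected with a Eu anti-GST antibody, over an 8-point 1:3 compound series. Tracer was set at its Kd (30 nM for CDK2/Cyclin A, CDK7 and CDK9/Cyclin T1; 35 nM for CDK9/Cyclin K). Read after 1 h at room temperature; Kd was fitted from sigmoidal curves.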

The target in a further assay is T2, CDK9 (Homo sapiens, UniProt P50750).
T2 construct: purchased Invitrogen
Briefly: Lance Ultra KinaSelect Assay, CDK9. Type of assay: biochemical. The note with it: cyclin partner (T1 or K) not stated; read-out: CDK9 LANCE assay (activity range), IC50. The protocol: (§1) 2. Measurement of half maximal inhibitory concentration to CDKs This protocol describes how the Lance Ultra KinaSelect Assay was performed to determine half maximal inhibitory concentration (1050) of compounds of general formula (I) and CDK/Cyclin complexes. The principle behind this enzymatic assay is based upon the phosphorylation of the ULight-Peptide Substrat. It is detected by using a specific
(§2) EU-labeled anti-phospho peptide antibody. The binding of the Eu-labeled anti-phospho peptide antibody to the phosphorylated ULight labeled peptide gives rise to a FRET-signal. Binding of an inhibitor to the kinase prevents phosphorylation of the ULight-MBP Substrat, resulting in a loss of FRET.
(§3) The compounds of general formula (I) summarized in Table 5 were diluted from a 10 mM DMSO stock solution 1:10 in a total volume of 15 μL DMSO. This compound predilution was then serial diluted 1:3 over 8 steps in DMSO and briefly spun down. Each compound solution was now diluted 1:20 in Enzymatic Buffer (HEPES: 50 mM, pH: 7.5; MgCl2: 10 mM; EGTA: 1 mM; DTT: 2 mM; Tween-20: 0.01%), mixed thoroughly and spun down. For every sample, 2 μL of the diluted compound were mixed with 6 μL CDK/Cyclin/Substrat solution and 2 μL ATP solution in a well of a small volume 384 well plate (Corning Incorporated, Corning, N.Y., USA; order no. 3673). The CDK/Cyclin was diluted to the appropriate concentration (see Table 3) and the ATP concentration was adjusted to its […] for the CDK/Cyclin, which was 3 μM for CDK2/Cyclin A, 20 μM for CDK1/Cyclin B1, 25 μM for CDK7/Cyclin H and CDK9/Cyclin T1, 55 μM for CDK6/Cyclin D3, 90 μM for CDK4/Cyclin D1 and 125 μM for CDK9/Cyclin K. For negative controls, in each well 2 μL of DMSO solution (1% final DMSO assay concentration) was mixed with 6 μL substrate solution (50 nM ULight MBP final assay concentration) and 2 μL ATP solution (appropriate final concentration see Table 3). For positive controls, in each well 2 μL of DMSO solution (1% final DMSO assay concentration) was mixed with 6 μL CDK/Cyclin/Substrat (appropriate final concentration see Table 3) and 2 μL Tracer ATP solution (appropriate final concentration see Table 3). Positive and negative controls were calculated from at least 8 different sample wells. The 384 well plates were mixed in a Teleshaker plate mixer (Beckman Coulter, Brea, Calif., USA) at 2000 rpm for 40 sec, and incubated for 1 h at room temperature. Before reading, 10 μL the detection buffer (Lance Detection Buffer 1×; EDTA: […]; Eu-Anti-P-MBP: see Table 3) was added. The FRET signal was measured at 340 nm excitation, 665 nm and 615 nm emission (for the kinase tracer and LanthaScreen Eu-AB, respectively) with an Envision spectrophotometer (Perkin Elmer, Waltham, Mass., USA) with 50 μs delay and 300 μs integration time. IC50 values were determined from the sigmoidal dose response curves with the software Quattro Workflow (Quattro GmbH, Munich, Germany).
In general terms: Time-resolved FRET reads energy transfer from a long-lived donor to a nearby acceptor.

The target in another assay is T3, CDK4/CyclinD1 (Homo sapiens, UniProt P11802).
T3 construct: purchased Invitrogen
Kind of assay: Lance Ultra KinaSelect Assay, CDK4. Type of assay: biochemical. Conditions: ATP 90 μM; read-out: CDK4 LANCE assay (activity range), IC50. The protocol:
as §1, §2, §3

The target in assay [2] is T1, CDK7/CyclinH/MAT1. Briefly: Lance Ultra KinaSelect Assay, CDK7. In kind it is biochemical. The note with it: ATP 25 μM; read-out: CDK7 LANCE assay (activity range), IC50. The protocol:
as §1, §2, §3

T2 sequence (P50750 whole entry): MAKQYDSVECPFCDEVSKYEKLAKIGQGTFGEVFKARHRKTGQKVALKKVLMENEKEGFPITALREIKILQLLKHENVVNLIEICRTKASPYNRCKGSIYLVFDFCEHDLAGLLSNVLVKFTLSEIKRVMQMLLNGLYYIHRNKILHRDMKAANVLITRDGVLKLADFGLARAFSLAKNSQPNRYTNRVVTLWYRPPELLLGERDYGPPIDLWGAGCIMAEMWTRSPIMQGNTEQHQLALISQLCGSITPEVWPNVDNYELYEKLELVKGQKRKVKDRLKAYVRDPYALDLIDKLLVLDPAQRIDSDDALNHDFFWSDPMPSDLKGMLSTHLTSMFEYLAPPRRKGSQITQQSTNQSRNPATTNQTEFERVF
T3 sequence (P11802 whole entry): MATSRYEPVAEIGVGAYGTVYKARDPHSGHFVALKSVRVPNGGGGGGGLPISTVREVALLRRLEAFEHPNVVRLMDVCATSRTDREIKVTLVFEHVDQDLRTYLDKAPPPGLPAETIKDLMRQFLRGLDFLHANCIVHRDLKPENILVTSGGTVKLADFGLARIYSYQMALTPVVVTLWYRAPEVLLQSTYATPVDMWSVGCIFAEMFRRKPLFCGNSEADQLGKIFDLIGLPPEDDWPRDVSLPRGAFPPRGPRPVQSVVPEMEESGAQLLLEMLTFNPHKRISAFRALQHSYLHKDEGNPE
T3 sequence (P24385 whole entry partner): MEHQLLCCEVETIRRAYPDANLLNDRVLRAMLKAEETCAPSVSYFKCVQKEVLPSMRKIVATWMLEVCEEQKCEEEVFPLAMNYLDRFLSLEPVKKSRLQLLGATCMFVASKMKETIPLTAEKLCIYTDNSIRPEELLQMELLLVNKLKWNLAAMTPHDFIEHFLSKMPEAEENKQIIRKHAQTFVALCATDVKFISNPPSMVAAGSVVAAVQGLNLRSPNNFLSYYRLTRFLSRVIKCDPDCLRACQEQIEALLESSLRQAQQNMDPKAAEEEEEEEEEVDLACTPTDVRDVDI
T1 sequence (P50613 whole entry): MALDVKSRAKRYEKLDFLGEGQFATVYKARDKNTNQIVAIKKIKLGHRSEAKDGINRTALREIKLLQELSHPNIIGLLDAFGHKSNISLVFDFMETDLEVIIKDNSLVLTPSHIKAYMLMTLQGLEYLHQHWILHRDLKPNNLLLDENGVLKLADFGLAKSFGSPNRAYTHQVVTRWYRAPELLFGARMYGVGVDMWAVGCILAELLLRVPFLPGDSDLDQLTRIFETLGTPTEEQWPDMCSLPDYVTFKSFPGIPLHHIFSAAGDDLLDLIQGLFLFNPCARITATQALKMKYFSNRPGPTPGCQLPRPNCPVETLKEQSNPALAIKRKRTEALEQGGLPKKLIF
T1 sequence (P51946 whole entry partner): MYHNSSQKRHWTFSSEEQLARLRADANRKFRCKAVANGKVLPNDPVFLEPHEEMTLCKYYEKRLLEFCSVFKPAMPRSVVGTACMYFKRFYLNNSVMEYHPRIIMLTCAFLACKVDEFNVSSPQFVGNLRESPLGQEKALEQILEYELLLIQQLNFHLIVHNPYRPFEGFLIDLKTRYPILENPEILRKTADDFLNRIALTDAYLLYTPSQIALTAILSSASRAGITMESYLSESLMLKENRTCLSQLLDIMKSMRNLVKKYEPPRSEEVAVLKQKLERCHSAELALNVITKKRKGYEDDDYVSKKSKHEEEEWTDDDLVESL
T1 sequence (P51948 whole entry partner): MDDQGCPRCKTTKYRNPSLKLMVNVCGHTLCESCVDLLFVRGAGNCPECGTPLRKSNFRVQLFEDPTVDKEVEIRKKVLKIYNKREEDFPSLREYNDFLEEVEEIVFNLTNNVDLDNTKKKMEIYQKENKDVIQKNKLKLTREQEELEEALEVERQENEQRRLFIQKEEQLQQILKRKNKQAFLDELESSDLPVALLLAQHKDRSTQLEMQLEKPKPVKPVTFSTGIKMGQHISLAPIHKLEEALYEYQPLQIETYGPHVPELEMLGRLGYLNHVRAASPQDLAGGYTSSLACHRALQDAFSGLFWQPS

Take `NS(=O)(=O)Cc1cccc(Nc2ncnc(N3CCCC3c3ccccc3)n2)c1` (racemic) [Compound B33, rac-3-[(4-(2-Phenylpyrrolidin-1-yl)-1,3,5-triazin-2-yl)amino]-benzenemethanesulfonamide]: the dissociation constant Kd – broadly, the free concentration of one partner at which half of the binding sites on the other are occupied at equilibrium, for simple one-to-one binding – on CDK7/CyclinH/MAT1 [1] was more than 10 µM. Besides, the 50% inhibitory concentration (IC50) (as a rule, the midpoint of a concentration-inhibition curve) is 0.1 to 1 µM on CDK9, more than 10 µM at CDK4/CyclinD1 and more than 10 µM at CDK7/CyclinH/MAT1 [2].

On to `NS(=O)(=O)Cc1cccc(Nc2ncnc(N3CCCCC3)n2)c1` [Compound B1, 3-[(4-(Piperidin-1-yl)-1,3,5-triazin-2-yl)amino]benzenemethane sulfonamide], for which the Kd on CDK7/CyclinH/MAT1 [1] was more than 10 µM. Further, the values for the IC50 on CDK9, at CDK4/CyclinD1 and on CDK7/CyclinH/MAT1 [2] were 1 to 10 µM, more than 10 µM and more than 10 µM, respectively.

Consider `COC[C@H]1CCCN1c1ncnc(Nc2cccc(CS(N)(=O)=O)c2)n1` [Compound B17, (R)-3-[(4-(2-(Methoxymethyl)pyrrolidin-1-yl)-1,3,5-triazin-2-yl)amino]benzenemethanesulfonamide], for which, at CDK7/CyclinH/MAT1 [1], the Kd was more than 10 µM. Besides, the IC50 at CDK9 was 0.1 to 1 µM; at CDK4/CyclinD1 it was more than 10 µM; on CDK7/CyclinH/MAT1 [2], more than 10 µM.

As to `COC(=O)[C@H]1CCCN1c1ncnc(Nc2cccc(CS(N)(=O)=O)c2)n1` [Compound B21, (R)-Methyl 1-[4-((3-(Sulfamoylmethyl)phenyl)amino)-1,3,5-triazin-2-yl]pyrrolidine-2-carboxylate], the dissociation constant Kd at CDK7/CyclinH/MAT1 [1] was more than 10 µM. Further, on CDK9, the 50% inhibitory concentration (IC50) fell in the range of 0.1 to 1 µM.

For `NS(=O)(=O)Cc1cccc(Nc2ncnc(N3CCc4ncccc4C3)n2)c1` [Compound B38, 3-[(4-(7,8-Dihydro-1,6-naphthyridin-6(5H)-yl)-1,3,5-triazin-2-yl)amino]-benzenemethanesulfonamide], the Kd on CDK7/CyclinH/MAT1 [1] fell in the range of 1 to 10 µM. The half-inhibitory concentration (IC50) on CDK9 is less than 0.1 µM; at CDK4/CyclinD1 it was more than 10 µM; at CDK7/CyclinH/MAT1 [2], more than 10 µM.

As to `NS(=O)(=O)Cc1cccc(Nc2ncnc(N3CCc4nc[nH]c4C3)n2)c1` [Compound B44, 3-[(4-(6,7-Dihydro-3H-imidazo[4,5-c]pyridin-5(4H)-yl)-1,3,5-triazin-2-yl)amino]benzenemethanesulfonamide], the dissociation constant Kd at CDK7/CyclinH/MAT1 [1] lay within 1 to 10 µM. Also, at CDK9, the concentration for half-maximal inhibition (IC50) is less than 0.1 µM.

With `NS(=O)(=O)Cc1cccc(Nc2ncnc(N3CCc4ncsc4C3)n2)c1` [Compound B45, 3-[(4-(6,7-Dihydrothiazolo[5,4-c]pyridin-5(4H)-yl)-1,3,5-triazin-2-yl)amino]benzenemethanesulfonamide], the dissociation constant Kd at CDK7/CyclinH/MAT1 [1] fell in the range of 1 to 10 µM. The concentration for half-maximal inhibition (IC50) on CDK9 was less than 0.1 µM; at CDK7/CyclinH/MAT1 [2], 1 to 10 µM.

Consider `NS(=O)(=O)Cc1cccc(Nc2ncnc(N3CCCn4nccc43)n2)c1` [Compound B47, 3-[(4-(6,7-Dihydropyrazolo[1,5-a]pyrimidin-4(5H)-yl)-1,3,5-triazin-2-yl)amino]benzenemethanesulfonamide], for which the Kd at CDK7/CyclinH/MAT1 [1] was in the range of 0.1 to 1 µM. The IC50 is less than 0.1 µM on CDK9, 1 to 10 µM on CDK4/CyclinD1 and 1 to 10 µM at CDK7/CyclinH/MAT1 [2].

As to `NS(=O)(=O)Cc1cccc(Nc2ncnc(N3Cc4cn[nH]c4C3)n2)c1` [Compound B51, 3-[(4-(Pyrrolo[3,4-c]pyrazol-5(1H,4H,6H)-yl)-1,3,5-triazin-2-yl)amino]-benzenemethanesulfonamide], on CDK7/CyclinH/MAT1 [1], the Kd is 1 to 10 µM. Besides, the IC50 was less than 0.1 µM on CDK9, more than 10 µM on CDK4/CyclinD1 and more than 10 µM on CDK7/CyclinH/MAT1 [2].
